System: NCI/ADR-RES complex spheroid viability
Assay: Anticancer human tumor NCI/ADR-RES cell line growth inhibition;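 also: spheroids exposed to compounds for 7 days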;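 as to viability, T/C: 100% = DMSO vehicle treated spheroids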
Details: for IC50: curve of first compound; for viability, T/C: stronger effect = lower value
Method in brief: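 Drug combinations with the LSD1 inhibitor iadademstat tested on tumor cells co-cultured as spheroids with endothelial cells and mesenchymal stem cells. Concentrations descended in half-log increments from clinical Cmax or 10 microM.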

[1] = second compound 0.1 µM, first compound 0.000949 µM
[2] = second compound 0.1 µM, first compound 0.003 µM
[3] = second compound 0.1 µM, first compound 0.00949 µM
[4] = second compound 0.1 µM, first compound 0.03 µM
[5] = second compound 0.1 µM, first compound 0.0949 µM
[6] = second compound 0.1 µM, first compound 0.3 µM
[7] = second compound 0.316 µM, first compound 0.000949 µM
[8] = second compound 0.316 µM, first compound 0.003 µM
[9] = second compound 0.316 µM, first compound 0.00949 µM
[10] = second compound 0.316 µM, first compound 0.03 µM
[11] = second compound 0.316 µM, first compound 0.0949 µM
[12] = second compound 0.316 µM, first compound 0.3 µM
[13] = second compound 1 µM, first compound 0.000949 µM
[14] = second compound 1 µM, first compound 0.003 µM
[15] = second compound 1 µM, first compound 0.00949 µM
[16] = second compound 1 µM, first compound 0.03 µM
[17] = second compound 1 µM, first compound 0.0949 µM
[18] = second compound 1 µM, first compound 0.3 µM
[19] = second compound 3.16 µM, first compound 0.000949 µM
[20] = second compound 3.16 µM, first compound 0.003 µM
[21] = second compound 3.16 µM, first compound 0.00949 µM
[22] = second compound 3.16 µM, first compound 0.03 µM
[23] = second compound 3.16 µM, first compound 0.0949 µM
[24] = second compound 3.16 µM, first compound 0.3 µM
[25] = second compound 10 µM, first compound 0.000949 µM
[26] = second compound 10 µM, first compound 0.003 µM
[27] = second compound 10 µM, first compound 0.00949 µM
[28] = second compound 10 µM, first compound 0.03 µM
[29] = second compound 10 µM, first compound 0.0949 µM
[30] = second compound 10 µM, first compound 0.3 µM

For CCc1c2c(nc3ccc(O)cc13)-c1cc3c(c(=O)n1C2)COC(=O)[C@]3(O)CC + NC1CC1c1ccc(-c2cccc(O)c2)cc1, the IC50 (second compound 0.1 µM) was < 0.000949 µM, the IC50 (second compound 0.316 µM) was < 0.000949 µM and the IC50 (second compound 1 µM) was < 0.000949 µM. For the same molecule, the IC50 (second compound 3.16 µM) was < 0.000949 µM, the IC50 (second compound 10 µM) was < 0.000949 µM and the viability, T/C [1] was 3.8%. It also gave a viability, T/C [2] of 1.6%, a viability, T/C [3] of 0.64% and a viability, T/C [4] of 0.32%. For the same molecule, the viability, T/C [5] was 0.23%, the viability, T/C [6] was 0.59% and the viability, T/C [7] was 3.44%. The viability, T/C [8] was 1.85%, the viability, T/C [9] was 0.73% and the viability, T/C [10] was 0.21%. It also gave a viability, T/C [11] of 0.3%, a viability, T/C [12] of 0.38% and a viability, T/C [13] of 4.73%. For the same molecule, the viability, T/C [14] was 3.11%, the viability, T/C [15] was 0.96% and the viability, T/C [16] was 0.37%. The viability, T/C [17] was 0.24%, the viability, T/C [18] was 0.51% and the viability, T/C [19] was 8.34%. The viability, T/C [20] was 2.9%, the viability, T/C [21] was 1.29% and the viability, T/C [22] was 0.29%. It also gave a viability, T/C [23] of 0.18%, a viability, T/C [24] of 0.31% and a viability, T/C [25] of 20.9%. The viability, T/C [26] was 3.67%, the viability, T/C [27] was 1.58% and the viability, T/C [28] was 0.59%. The viability, T/C [29] was 0.26% and the viability, T/C [30] was 0.3%.

For Nc1ccccc1NC(=O)c1ccc(CNC(=O)OCc2cccnc2)cc1 + NC1CC1c1ccc(-c2cccc(O)c2)cc1, the IC50 (second compound 0.1 µM) was 0.824 µM, the IC50 (second compound 0.316 µM) was 0.907 µM and the IC50 (second compound 1 µM) was 0.906 µM. For the same molecule, the IC50 (second compound 3.16 µM) was 0.976 µM, the IC50 (second compound 10 µM) was 0.882 µM and the viability, T/C [3] was 93.7%. For the same molecule, the viability, T/C [4] was 97.9%, the viability, T/C [5] was 85.7% and the viability, T/C [6] was 69.1%. The viability, T/C (second compound 0.1 µM, first compound 0.949 µM) was 48.3%, the viability, T/C (second compound 0.1 µM, first compound 3 µM) was 27.2% and the viability, T/C [9] was 99.2%. For the same molecule, the viability, T/C [10] was 95.9%, the viability, T/C [11] was 95% and the viability, T/C [12] was 72.8%. It also gave a viability, T/C (second compound 0.316 µM, first compound 0.949 µM) of 50.3%, a viability, T/C (second compound 0.316 µM, first compound 3 µM) of 25.8% and a viability, T/C [15] of 93.3%. It also gave a viability, T/C [16] of 91.1%, a viability, T/C [17] of 85.3% and a viability, T/C [18] of 71.5%. For the same molecule, the viability, T/C (second compound 1 µM, first compound 0.949 µM) was 49.1%, the viability, T/C (second compound 1 µM, first compound 3 µM) was 26.7% and the viability, T/C [21] was 93.5%. It also gave a viability, T/C [22] of 89.5%, a viability, T/C [23] of 80.5% and a viability, T/C [24] of 71%. For the same molecule, the viability, T/C (second compound 3.16 µM, first compound 0.949 µM) was 49.4%, the viability, T/C (second compound 3.16 µM, first compound 3 µM) was 30.8% and the viability, T/C [27] was 83.4%. It also gave a viability, T/C [28] of 84.1%, a viability, T/C [29] of 74.7% and a viability, T/C [30] of 60.9%. For the same molecule, the viability, T/C (second compound 10 µM, first compound 0.949 µM) was 51.3% and the viability, T/C (second compound 10 µM, first compound 3 µM) was 31%.

Nc1ccn(C2OC(CO)C(O)C2(F)F)c(=O)n1 (stereo not given) + NC1CC1c1ccc(-c2cccc(O)c2)cc1 was tested, and the IC50 (second compound 0.1 µM) was < 0.000949 µM, the IC50 (second compound 0.316 µM) was < 0.000949 µM and the IC50 (second compound 1 µM) was < 0.000949 µM. For the same molecule, the IC50 (second compound 3.16 µM) was < 0.000949 µM, the IC50 (second compound 10 µM) was < 0.000949 µM and the viability, T/C [1] was 2.63%. For the same molecule, the viability, T/C [2] was 2.71%, the viability, T/C [3] was 2.9% and the viability, T/C [4] was 2.13%. It also gave a viability, T/C [5] of 1.39%, a viability, T/C [6] of 0.69% and a viability, T/C [7] of 2.24%. For the same molecule, the viability, T/C [8] was 2.81%, the viability, T/C [9] was 2.22% and the viability, T/C [10] was 1.81%. The viability, T/C [11] was 1.11%, the viability, T/C [12] was 0.86% and the viability, T/C [13] was 2.39%. It also gave a viability, T/C [14] of 2.3%, a viability, T/C [15] of 2.24% and a viability, T/C [16] of 2.16%. It also gave a viability, T/C [17] of 1.32%, a viability, T/C [18] of 0.73% and a viability, T/C [19] of 2.52%. It also gave a viability, T/C [20] of 2.29%, a viability, T/C [21] of 2.22% and a viability, T/C [22] of 2.18%. The viability, T/C [23] was 1.17%, the viability, T/C [24] was 0.8% and the viability, T/C [25] was 2.57%. It also gave a viability, T/C [26] of 2.57%, a viability, T/C [27] of 3.02% and a viability, T/C [28] of 2.33%. The viability, T/C [29] was 1.52% and the viability, T/C [30] was 1%.

For O=C(c1cc(Cc2n[nH]c(=O)c3ccccc23)ccc1F)N1CCN(C(=O)C2CC2)CC1 + NC1CC1c1ccc(-c2cccc(O)c2)cc1, the IC50 (second compound 0.1 µM) was > 10 µM, the IC50 (second compound 0.316 µM) was > 10 µM and the IC50 (second compound 1 µM) was > 10 µM. For the same molecule, the IC50 (second compound 3.16 µM) was > 10 µM, the IC50 (second compound 10 µM) was > 10 µM and the viability, T/C (second compound 0.1 µM, first compound 0.0316 µM) was 112%. The viability, T/C (second compound 0.1 µM, first compound 0.1 µM) was 108%, the viability, T/C (second compound 0.1 µM, first compound 0.316 µM) was 107% and the viability, T/C (second compound 0.1 µM, first compound 1 µM) was 105%. It also gave a viability, T/C (second compound 0.1 µM, first compound 3.16 µM) of 99.5%, a viability, T/C (second compound 0.1 µM, first compound 10 µM) of 91.8% and a viability, T/C (second compound 0.316 µM, first compound 0.0316 µM) of 111%. It also gave a viability, T/C (second compound 0.316 µM, first compound 0.1 µM) of 115%, a viability, T/C (second compound 0.316 µM, first compound 0.316 µM) of 108% and a viability, T/C (second compound 0.316 µM, first compound 1 µM) of 103%. For the same molecule, the viability, T/C (second compound 0.316 µM, first compound 3.16 µM) was 106%, the viability, T/C (second compound 0.316 µM, first compound 10 µM) was 95% and the viability, T/C (second compound 1 µM, first compound 0.0316 µM) was 106%. The viability, T/C (second compound 1 µM, first compound 0.1 µM) was 106%, the viability, T/C (second compound 1 µM, first compound 0.316 µM) was 103% and the viability, T/C (second compound 1 µM, first compound 1 µM) was 104%. It also gave a viability, T/C (second compound 1 µM, first compound 3.16 µM) of 99.4%, a viability, T/C (second compound 1 µM, first compound 10 µM) of 80.1% and a viability, T/C (second compound 3.16 µM, first compound 0.0316 µM) of 110%. It also gave a viability, T/C (second compound 3.16 µM, first compound 0.1 µM) of 111%, a viability, T/C (second compound 3.16 µM, first compound 0.316 µM) of 103% and a viability, T/C (second compound 3.16 µM, first compound 1 µM) of 97.3%. For the same molecule, the viability, T/C (second compound 3.16 µM, first compound 3.16 µM) was 96.7%, the viability, T/C (second compound 3.16 µM, first compound 10 µM) was 88.6% and the viability, T/C (second compound 10 µM, first compound 0.0316 µM) was 91.8%. For the same molecule, the viability, T/C (second compound 10 µM, first compound 0.1 µM) was 95.3%, the viability, T/C (second compound 10 µM, first compound 0.316 µM) was 96.4% and the viability, T/C (second compound 10 µM, first compound 1 µM) was 94.4%. It also gave a viability, T/C (second compound 10 µM, first compound 3.16 µM) of 88.7% and a viability, T/C (second compound 10 µM, first compound 10 µM) of 74.5%.

Reference: PubChem BioAssay AID1918955 (Molecular Pharmacology Branch, DTP, NCI, 2023)
